Results published in patent US12195427B2, “MASP-2 inhibitors and methods of use” (priority 2018, dated 2025).
Values belong to the compound of their own block, whether it stands above or below them.

Biological target: MASP-2 CCP2-SP (Homo sapiens (Human), UniProt O00187)
Assay: MASP-2 co-crystallization, X-ray crystallography and structure analysis (H-bonds, van der Waals contacts);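 for Ligand-pharmacophore element distance, pharmacophore element C2: distance from averaged pharmacophore element to bound ligand; missing value means element absent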;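 for Ligand-pharmacophore element distance, pharmacophore element C3: distance from averaged pharmacophore element to bound ligand; missing value means element absent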;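 for Ligand-pharmacophore element distance, pharmacophore element C4: distance from averaged pharmacophore element to bound ligand; missing value means element absent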;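 for Ligand-pharmacophore element distance, pharmacophore element C5: distance from averaged pharmacophore element to bound ligand; missing value means element absent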
Parameters: van der Waals contact distance, MASP-2 HIS 483 atom CD2 / van der Waals contact distance, MASP-2 HIS 483 atom NE2 / van der Waals contact distance, SER 654 C to compound atom / van der Waals contact distance, SER 654 O to compound atom / van der Waals contact distance, TRP 655 C to compound atom / van der Waals contact distance, MASP-2 GLY 528 atom CA / van der Waals contact distance TRP 655 atom CZ3 / van der Waals contact distance TRP 655 atom N / van der Waals contact distance TRP 655 atom CE3 / van der Waals contact distance GLY 656 atom C / van der Waals contact distance GLY 656 atom CA / van der Waals contact distance GLY 656 atom O / van der Waals contact distance, MASP-2 TYR 607 atom CD1 / van der Waals contact distance, MASP-2 PRO 606 atom O / d(C3,CA1) / d(CA1,N1)2 / d(H4,O1) / d(H4,O2) / d(O1,O2) / d(CA1,O2) / d(CA6,O1) / d(CA6,O2) / d(CA1,C5) / d(O2,H3) / d(N2,C2) / d(CA5,N2) / d(N2,C4) / d(N2,C6) / d(N2,CA3) / d(N2,O3) / d(O4,H2): unit not given beside the values
Conditions: for H-bond distance to MASP-2 GLY 656 atom O: GLY 656 O; for H-bond distance to MASP-2 SER 628 atom O: SER 628 O; for H-bond distance to MASP-2 SER 657 atom O: SER 657 O; for van der Waals contact distance, MASP-2 PHE 529 atom CZ / van der Waals contact distance, MASP-2 PHE 529 atom CE1 / van der Waals contact distance, MASP-2 PHE 529 atom CE2: Table A2-3; for H-bond distance to MASP-2 GLY 656 atom N: GLY 656 N; for H-bond distance to MASP-2 SER 654 atom O: SER 654 O; for Ligand-pharmacophore element distance, pharmacophore element C2 / Ligand-pharmacophore element distance, pharmacophore element C3 / Ligand-pharmacophore element distance, pharmacophore element C4 / Ligand-pharmacophore element distance, pharmacophore element C5 / Ligand-pharmacophore element distance, pharmacophore element C6 / Ligand-pharmacophore element distance, pharmacophore element C7 / Ligand-pharmacophore element distance, pharmacophore element CA1 / Ligand-pharmacophore element distance, pharmacophore element CA2 / Ligand-pharmacophore element distance, pharmacophore element CA3 / Ligand-pharmacophore element distance, pharmacophore element CA4 / Ligand-pharmacophore element distance, pharmacophore element CA5 / Ligand-pharmacophore element distance, pharmacophore element CA6: Table A4-1; for d(N2,C2) / d(N2,CA2) / d(O2,H3) / d(O2,N2): Table A5-2 pharmacophore distance, S3/S4 region; for a(O1, O2, H3) / a(O1, O2, N2) / a(O2, N2, C2) / a(O2, N2, CA2): Table A6-2 pharmacophore angle; for Pharmacophore torsion angle a(O1, O2, N2, CA2): Table A7-2; for H-bond distance to MASP-2 ASP 627 atom OD2: ASP 627 OD2; for van der Waals contact distance GLY 656 atom CA: MASP-2 GLY 656 CA
In short: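 First, CCP2-SP constructs with or without a 6His tag are produced in E. coli. Crystals are then soaked once or twice with inhibitor, cryoprotected in 20% glycerol or frozen directly, and diffracted at synchrotron beamlines. Phasing uses molecular replacement with parts of 1Q3X.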

[1] = Table A2-5: TYR 607 (CE1, CE2, OH), PRO 608 (CD, CG), SER 611 (CA)
[2] = Table A5-1 pharmacophore: distance between elements, S2/S1 region
[3] = Table A7-1, between pharmacophore elements of the bound compound
[4] = between pharmacophore elements of the bound compound
[5] = Table A8-6, nearest protein atom in cell to the left

Sequence of MASP-2 CCP2-SP (O00187 445-686): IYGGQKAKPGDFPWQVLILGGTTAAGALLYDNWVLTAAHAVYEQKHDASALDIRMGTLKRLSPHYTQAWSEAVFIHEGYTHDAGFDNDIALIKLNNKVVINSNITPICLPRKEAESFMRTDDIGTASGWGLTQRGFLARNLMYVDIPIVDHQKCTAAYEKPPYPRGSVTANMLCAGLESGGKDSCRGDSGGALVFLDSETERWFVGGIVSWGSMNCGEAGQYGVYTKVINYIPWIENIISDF
Sequence of MASP-2 CCP2-SP (O00187 364-432 partner): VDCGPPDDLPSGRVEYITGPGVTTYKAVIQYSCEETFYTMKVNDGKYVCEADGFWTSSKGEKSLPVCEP

Compound: C[C@H](NC(=O)[C@H](N)CCCc1ccccc1)C(=O)NCc1ccc(C(=N)N)cc1 [compound 1042]
H-bond distance to MASP-2 ASP 627 atom OD1 (Table A1 (H-Bonds), ASP 627 OD1): 3.32
H-bond distance to MASP-2 GLY 656 atom O (Table A1 (H-Bonds)): 2.34
H-bond distance to MASP-2 SER 628 atom O (Table A1 (H-Bonds)): 2.74
H-bond distance to MASP-2 SER 657 atom O (Table A1 (H-Bonds)): 2.65
van der Waals contact distance, MASP-2 HIS 483 atom NE2 (Table A2-1): 3.56
van der Waals contact distance, MASP-2 PHE 529 atom CZ: 3.57
van der Waals contact distance, SER 654 C to compound atom (Table A2-11): 3.36
van der Waals contact distance, TRP 655 C to compound atom (Table A2-12): 3.57

Compound: Cc1c(/N=C/c2ccc(OC(=O)c3ccco3)cc2)c(=O)n(-c2ccccc2)n1C [compound 34]
van der Waals contact distance GLY 656 atom CA (Table A2-13): 3.72

Compound: C[C@H](NC(=O)[C@H](N)CCCc1ccccc1)C(=O)NCc1ccc(C(=N)N)cc1.Cl.Cl [1042_2]
Ligand-pharmacophore element distance, pharmacophore element C2: 1.33
Ligand-pharmacophore element distance, pharmacophore element C3: 0
Ligand-pharmacophore element distance, pharmacophore element C4: 0
Ligand-pharmacophore element distance, pharmacophore element C5: 0
Ligand-pharmacophore element distance, pharmacophore element C6: 0
Ligand-pharmacophore element distance, pharmacophore element C7: 0
Ligand-pharmacophore element distance, pharmacophore element CA1: 0.5
Ligand-pharmacophore element distance, pharmacophore element CA2: 0.72
Ligand-pharmacophore element distance, pharmacophore element CA3: 0
Ligand-pharmacophore element distance, pharmacophore element CA4: 0
Ligand-pharmacophore element distance, pharmacophore element CA5: 0
Ligand-pharmacophore element distance, pharmacophore element CA6: 0
Ligand-pharmacophore element distance, pharmacophore element H1 (Table A4-2, element H1): 0
Ligand-pharmacophore element distance, pharmacophore element H2 (Table A4-2, element H2): 0
Ligand-pharmacophore element distance, pharmacophore element H3 (Table A4-2, element H3): 5.3
Ligand-pharmacophore element distance, pharmacophore element H4 (Table A4-2, element H4): 3.52
Ligand-pharmacophore element distance, pharmacophore element N1 (Table A4-2, element N1): 1.61
Ligand-pharmacophore element distance, pharmacophore element N2 (Table A4-2, element N2): 1.72
Ligand-pharmacophore element distance, pharmacophore element O1 (Table A4-2, element O1): 3.1
Ligand-pharmacophore element distance, pharmacophore element O2 (Table A4-2, element O2): 0.75
Ligand-pharmacophore element distance, pharmacophore element O3 (Table A4-2, element O3): 0
Ligand-pharmacophore element distance, pharmacophore element O4 (Table A4-2, element O4): 0
d(CA1,N1) [2]: 3.61
d(CA1,O1) [2]: 4.47
d(CA1,O2) [2]: 4.74
d(H4,O1) [2]: 4.02
d(H4,O2) [2]: 4.01
d(O1,O2) [2]: 3.46
d(N2,C2): 4.38
d(N2,CA2): 7.44
d(O2,H3): 5.89
d(O2,N2): 2.86
a(CA1, O1, O2) (Table A6-1 pharmacophore angle): 116.12
a(O1, O2, H4) (Table A6-1 pharmacophore angle): 128.91
A(N1, CA1, O1) a) (Table A6-1 pharmacophore angle, all compounds with protonatable center N1 except Methyl-amino-pyridine): 164.17
a(O1, O2, H3): 152.56
a(O1, O2, N2): 148.96
a(O2, N2, C2): 139.99
a(O2, N2, CA2): 158.67
Pharmacophore torsion angle a(H4, O1, O2, H3) [3]: −9.33
Pharmacophore torsion angle a(H4, O1, O2, N2) [3]: 44.33
Pharmacophore torsion angle a(N1, CA1, O2, H4) [3]: 69.40
Pharmacophore torsion angle a(O1, H4, O2, CA1) [3]: 68.80
Pharmacophore torsion angle a(O1, O2, N2, C2) [3]: 151.54
Pharmacophore torsion angle a(O1, O2, N2, CA2) [4]: 159.77
Pharmacophore protein distance to MET_658 (first MET_658 column) (Table A8-6, 6th residue column, nearest protein atom in cell to the left): 1.07
Pharmacophore protein distance to MET_658 (second MET_658 column) (Table A8-6, 9th residue column, nearest protein atom in cell to the left): 4.17
Pharmacophore protein distance to GLY_528 [5]: 4.01
Pharmacophore protein distance to PHE_529 [5]: 3.09
Pharmacophore protein distance to PRO_608 [5]: 3.74
Pharmacophore protein distance to SER_611 [5]: 2.54
Pharmacophore protein distance to TRP_655 (Table A8-6, pharmacophore elements C6, CA3, O3, H1, nearest protein atom in cell to the left): 3.27

More lines, now with the values ahead:

H-bond distance to MASP-2 GLY 656 atom N (Table A1 (H-Bonds)): 3.13
H-bond distance to MASP-2 GLY 656 atom O (Table A1 (H-Bonds)): 2.75
H-bond distance to MASP-2 SER 654 atom O (Table A1 (H-Bonds)): 2.89
van der Waals contact distance, MASP-2 HIS 483 atom CD2 (Table A2-1): 3.73
van der Waals contact distance, MASP-2 HIS 483 atom NE2 (Table A2-1): 3.76
van der Waals contact distance, MASP-2 PHE 529 atom CE1: 3.77
van der Waals contact distance, MASP-2 PHE 529 atom CE2: 3.82
van der Waals contact distance, MASP-2 amino acid atom to compound atom [1]: 3.73
van der Waals contact distance, MASP-2 amino acid atom to compound atom (Table A2-9 second part, ARG 630, AA atoms N, NE, NH1): 3.49
van der Waals contact distance, VAL 653 CG1 to compound atom (Table A2-11): 3.71
van der Waals contact distance TRP 655 atom CE3 (Table A2-13, MASP-2 TRP 655 CE3, compound atom in line below): 3.59
van der Waals contact distance TRP 655 atom CZ3 (Table A2-13, MASP-2 TRP 655 CZ3): 3.73
van der Waals contact distance TRP 655 atom N (Table A2-13, MASP-2 TRP 655 N): 3.68
Ligand-pharmacophore element distance, pharmacophore element C2: 0.26
Ligand-pharmacophore element distance, pharmacophore element C3: 0
Ligand-pharmacophore element distance, pharmacophore element C4: 0
Ligand-pharmacophore element distance, pharmacophore element C5: 0.2
Ligand-pharmacophore element distance, pharmacophore element C6: 0
Ligand-pharmacophore element distance, pharmacophore element C7: 0
Ligand-pharmacophore element distance, pharmacophore element CA1: 0.98
Ligand-pharmacophore element distance, pharmacophore element CA2: 0.18
Ligand-pharmacophore element distance, pharmacophore element CA3: 0
Ligand-pharmacophore element distance, pharmacophore element CA4: 0
Ligand-pharmacophore element distance, pharmacophore element CA5: 0
Ligand-pharmacophore element distance, pharmacophore element CA6: 0
d(CA1,C5) [2]: 3.47
d(CA1,O1) [2]: 5.49
d(CA1,O2) [2]: 4.76
d(CA1,O4) [2]: 1.77
d(H4,O1) [2]: 3.16
d(H4,O2) [2]: 3.59
d(O1,O2) [2]: 3.46
d(N2,C2): 1.51
d(N2,CA2): 5.79
d(O2,H3): 2.89
d(O2,N2): 2.65
a(C5, CA1, O1) (Table A6-1 pharmacophore angle): 151.25
a(CA1, O1, O2) (Table A6-1 pharmacophore angle): 97.80
a(O1, CA1, O4) (Table A6-1 pharmacophore angle): 65.77
a(O1, O2, H4) (Table A6-1 pharmacophore angle): 118.66
a(O1, O2, H3): 135.90
a(O1, O2, N2): 141.60
a(O2, N2, C2): 129.89
a(O2, N2, CA2): 155.75
Pharmacophore torsion angle a(C5, CA1, O1, H4) [3]: 6.40
Pharmacophore torsion angle a(H4, O1, O2, H3) [3]: 109.26
Pharmacophore torsion angle a(H4, O1, O2, N2) [3]: −171.69
Pharmacophore torsion angle a(O1, H4, O2, CA1) [3]: −96.26
Pharmacophore torsion angle a(O1, O2, N2, C2) [3]: 118.46
Pharmacophore torsion angle a(O1, O2, N2, CA2) [4]: 127.94
Compound: C[C@H](NC(=O)[C@H]1C[C@@H](c2ccccc2)CCN1)C(=O)NCc1cnc2[nH]cc(Cl)c2c1 [compound 1433, (2R,4S)—N—((S)-1-(((3-Chloro-1H-pyrrolo[2,3-b]pyridin-5-yl)methyl)amino)-1-oxopropan-2-yl)-4-phenylpiperidine-2-carboxamide]

H-bond distance to MASP-2 ASP 627 atom OD2 (Table A1 (H-Bonds)): 3.18
H-bond distance to MASP-2 GLY 656 atom N (Table A1 (H-Bonds)): 3.18
H-bond distance to MASP-2 GLY 656 atom O (Table A1 (H-Bonds)): 2.77
H-bond distance to MASP-2 SER 654 atom O (Table A1 (H-Bonds)): 2.93
H-bond distance to MASP-2 SER 657 atom O (Table A1 (H-Bonds)): 2.89
van der Waals contact distance, MASP-2 HIS 483 atom CD2 (Table A2-1): 3.63
van der Waals contact distance, MASP-2 PHE 529 atom CE1: 3.75
van der Waals contact distance, MASP-2 PHE 529 atom CE2: 3.78
van der Waals contact distance, MASP-2 PRO 606 atom CG (Table A2-4): 3.85
van der Waals contact distance, MASP-2 amino acid atom to compound atom [1]: 3.88
van der Waals contact distance, MASP-2 amino acid atom to compound atom (Table A2-6: SER 611 (CB, OG), ASP 627 (CG, OD1, OD2), SER 628 (C, CA)): 3.6
van der Waals contact distance, MASP-2 amino acid atom to compound atom (Table A2-7: SER 628 (CB, O, OG)): 3.53
van der Waals contact distance, MASP-2 amino acid atom to compound atom (Table A2-9, ARG 630, AA atoms CG, CZ): 3.83
van der Waals contact distance, TRP 655 C to compound atom (Table A2-12): 3.8
van der Waals contact distance, TRP 655 CA to compound atom (Table A2-12): 3.36
van der Waals contact distance GLY 656 atom CA (Table A2-13): 3.73
Compound: C[C@H](NC(=O)[C@H]1C[C@H](c2ccccc2)CN1)C(=O)NCc1ccc(N)nc1 [compound 1012]

H-bond distance to MASP-2 ASP 627 atom OD2 (Table A1 (H-Bonds)): 3.11
H-bond distance to MASP-2 SER 628 atom O (Table A1 (H-Bonds)): 2.38
van der Waals contact distance, MASP-2 HIS 483 atom CD2 (Table A2-1): 3.68
van der Waals contact distance, MASP-2 HIS 483 atom CE1 (Table A2-1): 3.81
van der Waals contact distance, MASP-2 PHE 529 atom CZ: 3.88
van der Waals contact distance, SER 654 O to compound atom (Table A2-12): 3.51
van der Waals contact distance, TRP 655 CA to compound atom (Table A2-12): 3.68
van der Waals contact distance, MASP-2 amino acid atom to compound atom (Table A2 section before Table A2-8): 3.84
Compound: C[C@H](NC(=O)[C@H]1C[C@@H](c2ccccc2)CCN1)C(=O)NCc1ccc(N)nc1 (stereo in doubt) [compound 1025]
